Assay results from patent US6737383B1, “Herbicidal oxadiazolidines” (priority 1999, dated 2004).

Tests used:
[1] = system: wheat; assay: Test B pre/postemergence wheat; format: in vivo, Triticum aestivum
Summary of the method: (§1)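 Test chemicals in a non-phytotoxic solvent mixture with surfactant were sprayed preemergence onto planted seeds and postemergence onto plants 2 to 18 cm tall (1- to 4-leaf stage). After twelve to sixteen days in a greenhouse, injury was visually rated against untreated controls from 0 (no effect) to 10 (complete control).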

[2] = system: corn; assay: Test B pre/postemergence corn; format: in vivo, Zea mays
Summary of the method: as §1

[3] = system: wild oat; assay: Test B pre/postemergence wild oat; format: in vivo, Avena fatua
Summary of the method: as §1

[4] = system: rice; assay: Test B flood test rice; format: in vivo, Oryza sativa
Summary of the method: (§2)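 Each value is a visual injury score relative to controls, with 10 meaning complete control and 0 no effect. Evaluation took place twelve to sixteen days after the 2-leaf-stage plants were treated and kept in the greenhouse.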

[5] = system: duck salad; assay: Test B flood test duck salad; format: in vivo, Heteranthera limosa
Summary of the method: as §2

[6] = system: giant foxtail; assay: Test B pre/postemergence giant foxtail; format: in vivo, Setaria faberii
Summary of the method: as §1

[7] = system: morningglory; assay: Test B pre/postemergence morningglory; format: in vivo, Ipomoea hederacea
Summary of the method: as §1

[8] = system: rape; assay: Test B pre/postemergence rape; format: in vivo, Brassica napus
Summary of the method: as §1

[9] = system: sugar beet; assay: Test B pre/postemergence sugar beet; format: in vivo, Beta vulgaris
Summary of the method: as §1

[10] = system: surinam grass; assay: Test B pre/postemergence surinam grass; format: in vivo, Brachiaria decumbens
Summary of the method: as §1

[11] = system: pigweed; assay: Test B pre/postemergence pigweed; format: in vivo, Amaranthus retroflexus
Summary of the method: as §1

[12] = system: smallflower flatsedge; assay: Test B flood test smallflower flatsedge; format: in vivo, Cyperus difformis
Summary of the method: as §2

[13] = system: bamyardgrass; assay: Test B flood test barnyardgrass; format: in vivo, Echinochloa crus-galli
Summary of the method: as §2

[14] = system: soybean; assay: Test B pre/postemergence soybean; format: in vivo, Glycine max
Summary of the method: as §1

[15] = system: velvetleaf; assay: Test B pre/postemergence velvetleaf; format: in vivo, Abutilon theophrasti
Summary of the method: as §1

[16] = system: cocklebur; assay: Test B pre/postemergence cocklebur; format: in vivo, Xanthium strumarium
Summary of the method: as §1

[17] = Postemergence, Rate 250 g/ha, scale 0 to 10
[18] = Postemergence, Rate 500 g/ha, scale of 0 to 10 where 0 is no effect and 10 is complete control
[19] = Preemergence, Rate 62 g/ha, scale 0 to 10 (0 no effect, 10 complete control)
[20] = Preemergence, Rate 125 g/ha, scale of 0 to 10 where 0 is no effect and 10 is complete control
[21] = Preemergence, Rate 250 g/ha, scale 0 to 10, 0 is no effect, 10 is complete control
[22] = Preemergence, Rate 500 g/ha, scale 0 to 10, 0 is no effect, 10 is complete control
[23] = Rate 125 g/ha, Postemergence, scale 0 to 10, 0 is no effect, 10 is complete control
[24] = Rate 62 g/ha, Postemergence, scale of 0 to 10 where 0 is no effect and 10 is complete control
[25] = Postemergence block (flood test species), Rate 250 g/ha, scale 0 to 10
[26] = Postemergence section (flood test species), Rate 500 g/ha, scale of 0 to 10 where 0 is no effect and 10 is complete control
[27] = Rate 125 g/ha, Postemergence section (flood test species), scale 0 to 10, 0 is no effect, 10 is complete control
[28] = Rate 62 g/ha, Postemergence (flood test species), scale of 0 to 10 where 0 is no effect and 10 is complete control

## CC(C)N(C(=O)n1oc(=O)n(C(C)C#N)c1=O)c1ccc(F)cc1F (stereo not drawn) [Compound 432]
[1]; [17]
  Wheat plant response rating: 0
[1]; [18]
  Wheat plant response rating: 0
[1]; [19]
  Plant response rating, Wheat: 0
[1]; [20]
  Plant response rating, Wheat: 0
[1]; [21]
  Wheat plant response rating: 0
[1]; [22]
  Wheat plant response rating: 0
[1]; [23]
  Wheat plant response rating: 0
[2]; [17]
  Corn plant response rating: 0
[2]; [18]
  Corn plant response rating: 0
[2]; [19]
  Plant response rating, Corn: 0
[2]; [20]
  Plant response rating, Corn: 0
[2]; [21]
  Corn plant response rating: 0
[2]; [22]
  Corn plant response rating: 0
[2]; [24]
  Corn plant response rating: 0
[2]; [23]
  Corn plant response rating: 0
[3]; [17]
  Wild oats plant response rating: 0
[3]; [18]
  Wild oats plant response rating: 3
[3]; [19]
  Plant response rating, Wild oats: 0
[3]; [20]
  Plant response rating, Wild oats: 0
[3]; [21]
  Wild oats plant response rating: 0
[3]; [22]
  Wild oats plant response rating: 0
[3]; [23]
  Wild oats plant response rating: 0
[4]; [25]
  Rice plant response rating: 0
[4]; [26]
  Rice plant response rating: 0
[4]; [27]
  Rice plant response rating: 0
[5]; [25]
  Ducksalad plant response rating: 0
[5]; [26]
  Ducksalad plant response rating: 0
[5]; [28]
  Ducksalad plant response rating: 0
[5]; [27]
  Ducksalad plant response rating: 0
[6]; [17]
  Giant foxtail plant response rating: 6
[6]; [18]
  Giant foxtail plant response rating: 8
[6]; [19]
  Plant response rating, Giant foxtail: 0
[6]; [20]
  Plant response rating, Giant foxtail: 2
[6]; [21]
  Giant foxtail plant response rating: 6
[6]; [22]
  Giant foxtail plant response rating: 9
[6]; [24]
  Giant foxtail plant response rating: 0
[6]; [23]
  Giant foxtail plant response rating: 3
[7]; [17]
  Morningglory plant response rating: 1
[7]; [18]
  Morningglory plant response rating: 2
[7]; [19]
  Plant response rating, Morningglory: 0
[7]; [20]
  Plant response rating, Morningglory: 0
[7]; [21]
  Morningglory plant response rating: 0
[7]; [22]
  Morningglory plant response rating: 0
[7]; [23]
  Morningglory plant response rating: 1
[8]; [17]
  Rape plant response rating: 0
[8]; [18]
  Rape plant response rating: 0
[8]; [19]
  Plant response rating, Rape: 0
[8]; [20]
  Plant response rating, Rape: 0
[8]; [21]
  Rape plant response rating: 0
[8]; [22]
  Rape plant response rating: 0
[8]; [23]
  Rape plant response rating: 0
[9]; [17]
  Sugarbeets plant response rating: 0
[9]; [18]
  Sugarbeets plant response rating: 0
[9]; [19]
  Plant response rating, Sugarbeets: 0
[9]; [20]
  Plant response rating, Sugarbeets: 0
[9]; [21]
  Sugarbeets plant response rating: 0
[9]; [22]
  Sugarbeets plant response rating: 0
[9]; [23]
  Sugarbeets plant response rating: 0
[10]; Postemergence, Rate 250 g/ha, scale 0 to 10, 0 no effect, 10 complete control
  B. signalgrass plant response rating: 0
[10]; [18]
  B. signalgrass plant response rating: 0
[10]; [19]
  Plant response rating, B. signalgrass: 0
[10]; [20]
  Plant response rating, B. signalgrass: 0
[10]; [21]
  B. signalgrass plant response rating: 0
[10]; [22]
  B. signalgrass plant response rating: 0
[10]; [24]
  B. signalgrass plant response rating: 0
[10]; [23]
  B. signalgrass plant response rating: 0
[11]; [17]
  Redroot pigweed plant response rating: 0
[11]; [18]
  Redroot pigweed plant response rating: 0
[11]; [19]
  Plant response rating, Redroot pigweed: 0
[11]; [20]
  Plant response rating, Redroot pigweed: 0
[11]; [21]
  Redroot pigweed plant response rating: 0
[11]; [22]
  Redroot pigweed plant response rating: 0
[11]; [23]
  Redroot pigweed plant response rating: 0
[12]; [25]
  S. Flatsedge plant response rating: 0
[12]; [26]
  S. Flatsedge plant response rating: 0
[12]; [27]
  S. Flatsedge plant response rating: 0
[13]; [25]
  Barnyardgrass plant response rating: 0
[13]; [26]
  Barnyardgrass plant response rating: 0
[13]; [28]
  Barnyardgrass plant response rating: 0
[13]; [27]
  Barnyardgrass plant response rating: 0
[14]; [17]
  Soybean plant response rating: 2
[14]; [18]
  Soybean plant response rating: 2
[14]; [19]
  Plant response rating, Soybean: 0
[14]; [20]
  Plant response rating, Soybean: 0
[14]; [21]
  Soybean plant response rating: 0
[14]; [22]
  Soybean plant response rating: 0
[14]; [23]
  Soybean plant response rating: 1
[15]; [17]
  Velvetleaf plant response rating: 0
[15]; [18]
  Velvetleaf plant response rating: 2
[15]; [19]
  Plant response rating, Velvetleaf: 0
[15]; [20]
  Plant response rating, Velvetleaf: 0
[15]; [21]
  Velvetleaf plant response rating: 0
[15]; [22]
  Velvetleaf plant response rating: 0
[15]; [23]
  Velvetleaf plant response rating: 0
[16]; [17]
  Cocklebur plant response rating: 0
[16]; [18]
  Cocklebur plant response rating: 0
[16]; [19]
  Plant response rating, Cocklebur: 0
[16]; [20]
  Plant response rating, Cocklebur: 0
[16]; [21]
  Cocklebur plant response rating: 0
[16]; [22]
  Cocklebur plant response rating: 0
[16]; [24]
  Cocklebur plant response rating: 0
[16]; [23]
  Cocklebur plant response rating: 0
